Assay results: patent US20210269411A1, “COMFREYNS, ARYLNAPHTHALENE LIGNANS THAT INHIBIT PRO-INFLAMMATORY GENE EXPRESSION, AND PHARMACEUTIC COMPOSITION COMPRISING THEM” (The Procter & Gamble Company, priority 2020, published 2021)
“And” between values parts separate entries of the source, which are not always exact repeats. Identical values can stand only once.

System: IL-1β induced E-selectin expression
Assay: Inhibition of IL-1β induced E-selectin (SELE) mRNA expression in primary HUVEC, real time PCR
Assay type: cell-based, human
Conditions: for Inhibitory activity against E-selectin expression (in words): IL-1β stimulated HUVEC, 5 ng/mL IL-1β for 90 min; for EC [μM] (effective concentration) / Max. Inhibition (%): HUVEC pre-incubated 30 min with compound, then 5 ng/mL IL-1β for 90 min; for EC [μM] (effective concentration): SELE mRNA normalized to GAPDH, at least three independent experiments; for Max. Inhibition (%): SELE mRNA by qPCR, at the effective concentration
Protocol: J. Seigner et al. (Frontiers in Pharmacology 10.3389/fphar.2019.00289) reported recently that interleukin-1β (IL-1β) induced E-selectin mRNA levels were inhibited by a comfrey extract by approximately 70% at the starting concentration of 20 μg/ml. E-selectin is a NF-κB-dependent target gene and IL-1β is a well-described pro-inflammatory mediator that exerts an important role in the regulation of immune and inflammatory responses, in particular those involving sterile insults such as trauma and blunt injuries. […] Thus, the anti-inflammatory activity of individual compounds 1, 5, 12 and 14, was tested using IL-1-stimulated HUVEC cells and analyzed by real time PCR determining the fold change in mRNA expression of E-selectin. These were compared to the inhibitory activity of the new arylnaphthalene lignan comfreyn A (15) and globoidnan B (8), malaxinic acid (9) and caffeic acid ethyl ester (16), the latter three identified first time in S. officinale as disclosed herein.
Therefore, primary HUVEC cells were isolated from umbilical cords as described by M. Hoeth et al., Guidance Molecules in Human Endothelial Cells, Plos One 7, 2012 and maintained in M199 medium (Lonza) supplemented with 20% FCS (Sigma), 2 mM L-glutamine (Sigma), penicillin (100 units/mL), streptomycin ([…]), 5 units/mL heparin, and […] ECGS (Promocell), and were used up to passage 5. HUVEC cell were pre-incubated with various concentration of purified compounds (1, 5, 8, 9, 12, 14, 15 and 16) for 30 minutes following stimulation with 5 ng/mL IL-1β (R&D Systems) for 90 min. Cells were then analyzed for the change in mRNA expression of E-Selectin (SELE). Therefore, total RNA was isolated using the PeqGold Total RNA Isolation Kit (VWR International) according to the manufacturer's instructions. 1 μg RNA was reverse transcribed using random hexamers (Fermentas) and murine leukemia virus reverse transcriptase (Thermo Scientific Fisher). Primers were designed using the software “Primer3”. Following primer sequences were used for qPCR: glyceraldehyde 3-phosphate dehydrogenase (GAPDH) forward, 5′-AGAAGGCTGGGGCTCATTT-3′ and reverse, 5′-[…]-3′; E-Selectin (SELE) forward, 5′-CCTGTGAAGCTCCCACTGA-3 and reverse 5′-[…]-3′. Real-time PCR was done with the SsoAdvanced Universal SYBR Green Supermix (BioRad) using the StepOnePlus instrument (Applied Biosystems), and relative mRNA expression normalized to GAPDH. Fold changes in mRNA expression were calculated according to the 2-ΔΔCT method.

Row | Structure (SMILES) | Inhibitory activity against E-selectin expression (in words) | EC [μM] (effective concentration) [µM] | Max. Inhibition (%) | other results
1 | NC(=O)NC1NC(=O)NC1=O (stereo not shown) [Compound 1, allantoin] | do not show any inhibitor activity |  |  | 
2 | O=Cc1ccc(O)c(O)c1 [Compound 5, protocatechuic aldehyde] |  | 120 |  | 
3 | O=C(O[C@H](Cc1ccc(O)c(O)c1)C(=O)O)C1=Cc2cc(O)c(O)cc2[C@H](c2ccc(O)c(O)c2)[C@H]1C(=O)O [Compound 8, globoidnan B] | did not show any inhibitory activity |  |  | 
4 | CC(C)=CCc1cc(C(=O)O)ccc1O[C@@H]1O[C@H](CO)[C@@H](O)C(O)[C@H]1O (stereo partly shown) [Compound 9, malaxinic acid] |  | 108 |  | 
5 | O=C(/C=C/c1ccc(O)c(O)c1)O[C@H](Cc1ccc(O)c(O)c1)C(=O)O [Compound 12, rosmarinic acid] | do not show any inhibitor activity |  |  | 
6 | O=C(O[C@H](Cc1ccc(O)c(O)c1)C(=O)O)c1cc(-c2ccc(O)c(O)c2)c2cc(O)c(O)cc2c1 [Compound 14, globoidnan A] |  | 40 | 35% | 
7 | CCOC(=O)c1cc2cc(O)c(O)cc2c2c1c(=O)oc1cc(O)c(O)cc12 [Compound 15, comfreyn A] |  | 50 | 50% and 52% | Inhibitory activity against E-selectin expression (in words) (listed as Comfreyn A): inhibition of E-selectin expression; Inhibitory activity against E-selectin expression (in words) (listed as comfreyn A): inhibit the expression of E-selecting mRNA
8 | CCOC(=O)/C=C/c1ccc(O)c(O)c1 [Compound 16, caffeic acid ethyl ester] |  | 64 | 70% | 
